# Assay results from US9611249B2, “1H-indazole-3-carboxamide compounds as glycogen synthase kinase 3 beta inhibitors” (AZIENDE CHIMICHE RIUNITE ANGELINI FRANCESCO A.C.R.A.F. …, priority 2012, dated 2017).
# pIC50: −log10 of the molar value. Counter-ions that a name gives are not always drawn.
# Target: T1, human GSK-3β (Homo sapiens (Human), UniProt P49841)
# Experiment: GSK-3β LanthaScreen TR-FRET Eu Kinase binding and displacement assay
# Settings: compounds 16 to 41, LanthaScreen TR-FRET binding and displacement assay, five concentrations 100 μM to 10 nM
# Experimental: In a second assay, the same compounds were assayed at five concentrations ranging from 100 μM to 10 nM with ten-fold dilutions in duplicate. Compounds 1 to 15 were tested using the same first assay, compounds 16 to 41 were tested in another assay based on the binding and displacement of AlexaFluor® 647 labeled, ATP-competitive Kinase inhibitor scaffold using LanthaScreen™ TR-FRET technology Eu Kinase assay packet according to manufacturer's instruction (Life Technologies, Italy).
# (§1) The IC50 values (concentration causing a half maximal inhibition of control specific activity), reported in table 4, were determined by non-linear regression analysis of the inhibition curves generated with mean replicate values using Hill equation curve fitting.
# T1 sequence (P49841 whole entry): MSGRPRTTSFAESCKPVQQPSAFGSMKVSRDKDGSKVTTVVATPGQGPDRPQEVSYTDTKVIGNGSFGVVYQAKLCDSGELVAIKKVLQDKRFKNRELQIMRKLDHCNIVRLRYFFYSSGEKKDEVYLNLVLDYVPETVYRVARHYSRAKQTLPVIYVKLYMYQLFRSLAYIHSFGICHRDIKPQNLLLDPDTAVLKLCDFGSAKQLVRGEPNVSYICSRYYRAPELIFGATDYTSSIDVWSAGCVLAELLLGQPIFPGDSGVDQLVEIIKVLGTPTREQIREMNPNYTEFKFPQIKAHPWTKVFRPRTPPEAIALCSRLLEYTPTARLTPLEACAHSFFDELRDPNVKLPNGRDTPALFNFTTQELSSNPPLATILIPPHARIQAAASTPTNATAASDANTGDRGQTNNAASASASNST
row,pIC50,SMILES
1,5.47,"COc1ccc2[nH]nc(C(=O)NCC3CCN(CCCNC(=O)c4ccccc4)CC3)c2c1 [Compound 36, 5-methoxy-N-[(1-{3-[(phenylcarbonyl)amino]propyl}piperidin-4-yl)methyl]-1H-indazole-3-carboxamide]"
2,5.97,"O=C(O)CN1CCC(CNC(=O)c2n[nH]c3ccc(C4CCCCC4)cc23)CC1 [Compound 34, [4-({[(5-cyclohexyl-1H-indazol-3-yl)carbonyl]amino}methyl)piperidin-1-yl] acetic acid]"
3,6.24,"COCCN1CCC(CNC(=O)c2n[nH]c3ccc(-c4ccccc4C)cc23)CC1 [Compound 16, N-{[1-(2-methoxyethyl)piperidin-4-yl]methyl}-5-(2-methylphenyl)-1H-indazole-3-carboxamide]"
4,5.69,"CCCCCc1ccc2[nH]nc(C(=O)NCC3CCN(CC(=O)O)CC3)c2c1 [Compound 35, [4-({[(5-pentyl-1H-indazol-3-yl)carbonyl]amino}methyl)piperidin-1-yl] acetic acid]"
5,5.41,"CC(C)c1ccc2[nH]nc(C(=O)NCC3CCN(CC(=O)O)CC3)c2c1 [Compound 32, {4-[({[5-(propan-2-yl)-1H-indazol-3-yl]carbonyl}amino)methyl]piperidin-1-yl} acetic acid]"
6,6.28,"O=C(NCC1CCNCC1)c1n[nH]c2ccc(Br)cc12 [Compound 25b, 5-Bromo-N-(piperidin-4-ylmethyl)-1H-indazole-3-carbox-amide hydrochloride]"
7,6.02,"CCC(=O)NCCCN1CCC(CNC(=O)c2n[nH]c3ccc(OC)cc23)CC1 [Compound 39, 5-methoxy-N-({1-[3-(propanoylamino)propyl]piperidin-4-yl}methyl)-1H-indazole-3-carboxamide]"
8,6.01,"CCCC(=O)NCCCN1CCC(CNC(=O)c2n[nH]c3ccc(OC)cc23)CC1 [Compound 37, N-({1-[3-(butanoylamino)propyl]piperidin-4-yl}methyl)-5-methoxy-1H-indazole-3-carboxamide]"
9,7.70,"COc1cncc(-c2ccc3[nH]nc(C(=O)NCC4CCN(CC(=O)O)CC4)c3c2)c1 [Compound 30, {4-[({[5-(5-methoxypyridin-3-yl)-1H-indazol-3-yl]carbonyl}amino)methyl]piperidin-1-yl}acetic acid]"
10,6.96,"O=C(O)CN1CCC(CNC(=O)c2n[nH]c3ccc(-c4cccc(F)c4)cc23)CC1 [Compound 28, {4-[({[5-(3-fluorophenyl)-1H-indazol-3-yl]carbonyl}amino)methyl]piperidin-1-yl} acetic acid hydrate]"
11,5.97,"CCOc1cc(F)c(F)cc1-c1ccc2[nH]nc(C(=O)NCC3CCN(CCOC)CC3)c2c1 [Compound 18, 5-(2-ethoxy-4,5-difluorophenyl)-N-{[1-(2-methoxyethyl)piperidin-4-yl]methyl}-1H-indazole-3-carboxamide]"
12,6.66,"O=C(O)CN1CCC(CNC(=O)c2n[nH]c3ccc(-c4cncnc4)cc23)CC1 [Compound 25, {4-[({[5-(Pyrimidin-5-yl)-1H-indazol-3-yl]carbonyl}amino)methyl]piperidin-1-yl}acetic acid hydrate]"
13,5.98,"O=C(O)CN1CCC(CNC(=O)c2n[nH]c3ccc(C4=CCOCC4)cc23)CC1 [Compound 33, {4-[({[5-(3,6-dihydro-2H-pyran-4-yl)-1H-indazol-3-yl]carbonyl}amino)methyl]piperidin-1-yl}acetic acid]"
14,5.99,"COc1ccc2[nH]nc(C(=O)NCC3CCN(CCCC(=O)O)CC3)c2c1 [Compound 24, 4-[4-({[(5-methoxy-1H-indazol-3-yl)carbonyl]amino}methyl)piperidin-1-yl] butanoic acid]"
15,6.11,"C/C=C/C(=O)NCCCN1CCC(CNC(=O)c2n[nH]c3ccc(OC)cc23)CC1 [Compound 38, N-[(1-{3-[(2E)-but-2-enoylamino]propyl}piperidin-4-yl)methyl]-5-methoxy-1H-indazole-3-carboxamide]"
16,6.04,"Cc1noc(C)c1-c1ccc2[nH]nc(C(=O)NCC3CCN(CC(=O)O)CC3)c2c1 [Compound 26, {4-[({[5-(3,5-Dimethylisoxazol-4-yl)-1H-indazol-3-yl]carbonyl}amino)methyl]piperidin-1-yl}acetic acid hydrate]"
17,7.00,"O=C(O)CN1CCC(CNC(=O)c2n[nH]c3ccc(-c4cccc(Cl)c4Cl)cc23)CC1 [Compound 27, {4-[({[5-(2,3-dichlorophenyl)-1H-indazol-3-yl]carbonyl}amino)methyl]piperidin-1-yl}acetic acid hydrate]"
18,6.06,"CC#CC(=O)NCCCN1CCC(CNC(=O)c2n[nH]c3ccc(OC)cc23)CC1 [Compound 40, N-({1-[3-(but-2-ynoylamino)propyl]piperidin-4-yl}methyl)-5-methoxy-1H-indazole-3-carboxamide]"

# Target: T1, human GSK-3β
# Experiment: Activity on human GSK-3β, LANCE substrate phosphorylation assay
# Assay type: biochemical
# Settings: 10 μM, in duplicate, first screening assay
# Experimental: Activity on human GSK-3β was assessed using the following methods (according to Meijer et al., Chem. Biol., 2003-10:1255-1266).
# In a first screening assay, compounds were tested in duplicate at a concentration of 10 μM.
# Human recombinant enzyme GSK-3β was incubated for 90 minutes at 22° C. in the presence of compounds or vehicle in a reaction buffer containing ATP plus 100 nM unphosphorylated specific substrate peptide (Ulight-[…] K-amide). Substrate phosphorylation was measured by LANCE technology (PerkinElmer, Conn., USA).
# In a second assay, the same compounds were assayed at five concentrations ranging from 100 μM to 10 nM with ten-fold dilutions in duplicate.
# as §1
row,inhibition at 10 µM [%],SMILES
1,71,"O=C(O)CN1CCC(CNC(=O)c2n[nH]c3cc(O)c(Br)cc23)CC1 [Compound 41, [4-({[(5-bromo-6-hydroxy-1H-indazol-3-yl)carbonyl]amino}methyl)piperidin-1-yl] acetic acid]"

# Same assay, conditions: compounds 1 to 15, LANCE assay, five concentrations 100 μM to 10 nM
row,pIC50,SMILES
1,7.30,"COCCN1CCC(CNC(=O)c2n[nH]c3ccc(-c4ccc(OC)nc4)cc23)CC1 [Compound 15, N-{[1-(2-methoxyethyl)piperidin-4-yl]methyl}-5-(6-methoxypyridin-3-yl)-1H-indazole-3-carboxamide]"
2,7.52,"COCCN1CCC(CNC(=O)c2n[nH]c3ccc(-c4cccnc4)cc23)CC1 [Compound 4, N-{[1-(2-methoxyethyl)piperidin-4-yl]methyl}-5-(pyridin-3-yl)-1H-indazole-3-carboxamide]"
3,7.22,"COCCN1CCC(CNC(=O)c2n[nH]c3ccc(-c4ccc(C)nc4)cc23)CC1 [Compound 7, N-{[1-(2-methoxyethyl)piperidin-4-yl]methyl}-5-(6-methylpyridin-3-yl)-1H-indazole-3-carboxamide]"
4,6.05,"COCCN1CCC(CNC(=O)c2n[nH]c3ccc(-c4ccc(O)cc4)cc23)CC1 [Compound 11, 5-(4-hydroxyphenyl)-N-{[1-(2-methoxyethyl)piperidin-4-yl]methyl}-1H-indazole-3-carboxamide]"
5,7.15,"COCCN1CCC(CNC(=O)c2n[nH]c3ccc(-c4ccccc4F)cc23)CC1 [Compound 6, 5-(2-fluorophenyl)-N-{[1-(2-methoxyethyl)piperidin-4-yl]methyl}-1H-indazole-3-carboxamide]"
6,6.70,"COCCN1CCC(CNC(=O)c2n[nH]c3ccc(-c4ccccc4)cc23)CC1 [Compound 9, N-{[1-(2-methoxyethyl)pipendin-4-yl]methyl}-5-phenyl-1H-indazole-3-carboxamide]"
7,6.25,"COCCN1CCC(CNC(=O)c2n[nH]c3ccc(-c4ccc(OC)cc4)cc23)CC1 [Compound 12, N-{[1-(2-methoxyethyl)piperidin-4-yl]methyl}-5-(4-methoxyphenyl)-1H-indazole-3-carboxamide]"
8,5.85,"COCCN1CCC(CNC(=O)c2n[nH]c3ccc(-c4cccnc4OC)cc23)CC1 [Compound 14, N-{[1-(2-methoxyethyl)piperidin-4-yl]methyl}-5-(2-methoxypyridin-3-yl)-1H-indazole-3-carboxamide]"
9,7.30,"COCCN1CCC(CNC(=O)c2n[nH]c3ccc(-c4cnccc4OC)cc23)CC1 [Compound 5, N-{[1-(2-methoxyethyl)piperidin-4-yl]methyl}-5-(4-methoxypyridin-3-yl)-1H-indazole-3-carboxamide]"
10,6.25,"COCCN1CCC(CNC(=O)c2n[nH]c3ccc(-c4ccc(C)cc4)cc23)CC1 [Compound 13, N-{[1-(2-methoxyethyl)piperidin-4-yl]methyl}-5-(4-methylphenyl)-1H-indazole-3-carboxamide]"
11,7.52,"COCCN1CCC(CNC(=O)c2n[nH]c3ccc(-c4cncc(OC)c4)cc23)CC1 [Compound 10, N-{[1-(2-methoxyethyl)piperidin-4-yl]methyl}-5-(5-methoxypyridin-3-yl)-1H-indazole-3-carboxamide]"
